The numbers were not newly measured in US20110052650A1, “POROUS CRYSTALLINE HYBRID SOLID FOR ADSORBING AND RELEASING GAS OF BIOLOGICAL INTEREST” (Centre National De La Recherche Scientifique - CNR S, priority 2008, published 2011), which cites them from elsewhere.

One may read the pKa as the pH at which an ionisable group is half protonated. `S` [H2S]: the pKa was 6.8.
